# Data published in US20240090503A1, “FUNGICIDAL OXADIAZOLES AND THEIR MIXTURES” (FMC CORPORATION, priority 2020, published 2024).
# Read-outs that look alike come from different tables or passages of the source.
# Key:
# [1] = system: Phakopsora pachyrhizi (the causal agent of Asian soybean rust); assay: Test A: preventive spray on soybean seedlings, Asian soybean rust, visual disease rating; type: in vivo; settings: Phakopsora pachyrhizi, 216 h, soybean seedlings, 100 = 100% disease control, 0 = no control; for pest or weed control at 10 ppm: 10 ppm test suspension
# How it was run: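 Compound in acetone/water (50/50) with 250 ppm PEG400 sprayed to run-off on soybean seedlings; inoculated next day with Phakopsora pachyrhizi spores. Held 24 h at 22° C in saturated atmosphere, then 8 days in a 22° C growth chamber before visual rating as % disease control relative to controls.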
# [2] = system: Zymoseptoria tritici (the causal agent of wheat leaf blotch); assay: Test B: preventive spray on wheat seedlings, wheat leaf blotch, visual disease rating; type: in vivo; settings: Zymoseptoria tritici, 456 h; 250 ppm test suspension; wheat seedlings; 100 = 100% disease control
# How it was run: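 This is a preventive test: spray application preceded Zymoseptoria tritici spore inoculation by one day. Test suspensions were in acetone/water with 250 ppm PEG400 surfactant, at the listed ppm rate. After 48 h saturated humidity at 24° C and 17 days at 20° C, visual ratings scored control from 0 to 100%.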
# [3] = system: Puccinia recondita f. sp. tritici (the causal agent of wheat leaf rust); assay: Test C: preventive spray on wheat seedlings, wheat leaf rust, visual disease rating; type: in vivo; settings: Puccinia recondita, 168 h, wheat seedlings, 100 = 100% disease control, 0 = no control; for pest or weed control at 10 ppm: 10 ppm test suspension
# How it was run: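 Wheat seedlings sprayed to run-off with compound in acetone/water (50/50) with 250 ppm PEG400, then inoculated with spores the following day. After 24 h saturated humidity at 20° C. and 6 days in growth chamber at 20° C., disease rated visually as % control relative to untreated controls.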
# [4] = system: Phakopsora pachyrhizi (the causal agent of Asian soybean rust); assay: Test E: compounds alone and mixtures sprayed on soybean seedlings, Asian soybean rust, observed and Colby-expected disease control; type: in vivo; settings: Phakopsora pachyrhizi, read-out: Test E Obsd
# How it was run: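 Soybean seedlings were sprayed to run-off with compounds or mixtures in ppm. Technical materials were applied in acetone/water with 250 ppm Trem 014; formulated products were applied in water. Plants were inoculated with Phakopsora pachyrhizi spores the next day, held 24 h saturated at 22° C, then 8 days at 22° C. Visual % disease control is the mean of four plants, and Colby-expected values are given for mixtures.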
compound,measurement,setting,value
"Cn1nc(Cc2ccc(-c3noc(C(F)(F)F)n3)cc2)cc1C(=O)NCC(F)(F)F [Compound 512, 1-methyl-N-(2,2,2-trifluoroethyl)-3-[[4-[5-(trifluoromethyl)-1,2,4-oxadiazol-3-yl]phenyl]methyl]-1H-pyrazole-5-carboxamide]",pest or weed control at 10 ppm,[1],100%
same,pest or weed control at 250 ppm,[2],98%
same,pest or weed control at 10 ppm,[3],100%
same,pest or weed control at 1.893 ppm,[4]; Compound 512 alone,9%
same,pest or weed control at 3.829 ppm,[4]; Compound 512 alone,58%
same,pest or weed control at 1.893 ppm,[4]; applied alone,14%
same,pest or weed control at 3.829 ppm,[4]; applied alone,66%
same,melting point,,156 to 160 °C
"COCCNC(=O)c1noc(Cc2ccc(-c3noc(C(F)(F)F)n3)cc2)n1 [Compound 511, N-(2-methoxyethyl)-5-[[4-[5-(trifluoromethyl)-1,2,4-oxadiazol-3-yl]phenyl]methyl]-1,2,4-oxadiazole-3-carboxamide]",pest or weed control at 250 ppm,[1]; 250 ppm test suspension,100%
same,pest or weed control at 250 ppm,[2],90%
same,pest or weed control at 250 ppm,[3]; 250 ppm test suspension,100%
same,pest or weed control at 2.436 ppm,[4]; Compound 511 alone,21%
same,pest or weed control at 4.926 ppm,[4]; Compound 511 alone,68%
same,pest or weed control at 2.436 ppm,[4]; applied alone,40%
same,pest or weed control at 4.926 ppm,[4]; applied alone,66%
same,melting point,,80 to 85 °C
"COCCNC(=O)c1csc(Cc2ccc(-c3noc(C(F)(F)F)n3)cc2)n1 [Compound 394, N-(2-methoxyethyl)-2-[[4-[5-(trifluoromethyl)-1,2,4-oxadiazol-3-yl]phenyl]methyl]-4-thiazolecarboxamide]",pest or weed control at 10 ppm,[1],100%
same,pest or weed control at 250 ppm,[2],99%
same,pest or weed control at 10 ppm,[3],100%
same,pest or weed control at 0.241 ppm,"[4]; applied alone, 0.241 ppm",4%
same,melting point,,83 to 87 °C
